Results from publication PMC7300217, “Surfactin Like Broad Spectrum Antimicrobial Lipopeptide Co-produced With Sublancin From Bacillus subtilis Strain A52: Dual Reservoir of Bioactives” (Frontiers in Microbiology, 2020).

Columns and labels:
S. aureus MTCC 1430 = assay: TLC overlay bioautography; assay type: cell-based, Staphylococcus aureus; details: ∼10^6 cells/ml, 24 h at 37°C
Experimental: Purified antimicrobial peptides were analyzed on TLC plates (Silica gel 60 F254, Merck, Germany) and used to determine the purity and antimicrobial activity of the compound by bioautographic assay ([Zheng et al., 2005]). About 50–60 μl of the peptide solution (100 μg/ml concentration) was loaded onto individual TLC silica gel plates in duplicates and were developed using a solvent system containing chloroform: […]: water (65:12:4 v/v). Subsequently, each TLC plate was dried, cut into two vertical parts, and one part of the TLC was used for direct detection of antimicrobial activity by overlaying on NA plate containing indicator strain (S. aureus MTCC 1430, ∼10^6 cells/ml). After allowing for 1 h of diffusion at 4°C, the TLC strip was removed and plates were incubated for 24 h at 37°C. The other part of TLC strip (5–10 μl of the peptide solution spot) was sprayed with ninhydrin and phosphomolybdic acid as a staining reagent to detect the presence of peptides and lipid moieties, respectively. Similarly, peptides were electrophoresed on 16% Tricine-SDS-PAGE and used for in-gel activity assay as described earlier ([Baindara et al., 2016]). S. aureus MTCC 1430 (∼10^6 cells/ml) was used as an indicator strain in assay.

F. moniliforme MTCC 158 = assay: MIC against phytopathogenic fungi, 96-well microtiter plate assay; assay type: cell-based, Fusarium moniliforme; details: 1 × 10^5 spores/ml in PDB, 25°C, OD600 after 48 h, triplicate
Experimental: (§1) The antimicrobial activity was tested by well diffusion assay as mentioned earlier ([Singh et al., 2014]). Strain A52 was grown for 24 h in 500 ml of nutrient broth (NB, Hi-media, India) using 1000 ml flask and subsequently cells were removed by centrifugation (10,000 rpm for 15 min at 4°C). Supernatant was filtered through 0.22 μm filter (Millipore, United States) to obtain cell-free fermented broth (CFB) that was used for antimicrobial assay (50 μl) against various indicator strains and the activity was measured as diameter of inhibition zone. Test strains used were Staphylococcus aureus (MTCC 1430), Bacillus subtilis (MTCC 121), B. firmus (MTCC 488), B. licheniformis (MTCC 429), B. thuringiensis (MTCC 1953), Escherichia coli (MTCC 1610), Micrococcus luteus (MTCC 106), Steptococcus pyrogens (MTCC 1928), S. anginosus (MTCC 1929), S. oralis (MTCC 2696), S. mutans (MTCC 497), Candida albicans (MTCC 1637), C. albicans (MTCC 183), C. albicans (MTCC 227), C. tropicalis (MTCC 184), C. glabrata (MTCC 3019), C. haemulonii (MTCC 2766), and C. inconsplicue (MTCC 1074). The phytopathogenic fungi employed in this study were Alternaria brassicicola (MTCC 2102), Colletotrichum acutatum (MTCC 1037), and Fusarium moniliforme (MTCC 158). Clinical isolates of Candida were provided by National Culture Collection of Pathogenic Fungi (NCCPF), PGIMER, Chandigarh, India.
(§2) The minimum inhibitory concentration (MIC) of HPLC purified peptides was evaluated by using microtiter plate dilution assay. The peptide concentration was estimated using BCA protein assay (Thermo Fisher Scientific, United States) method as described by manufacturer. […] OD was measured at 600 nm after 24 and 48 h for bacteria and yeast, respectively, using ELISA microplate reader (Thermo, United States). MIC against phytopathogenic fungi was determined using 96-well microtiter plate assay ([Kaur et al., 2016]). […] The microplates were incubated at 25°C and readings were recorded at 600 nm after 48 h. […]

[1] = tested on: C. tropicalis 420024 (clinical isolate); assay: MIC, microtiter plate dilution assay; assay type: cell-based; details: 5 × 10^5 CFU/ml, 37°C, OD600 after 48 h, triplicate
Experimental: as §1
(§3) The minimum inhibitory concentration (MIC) of HPLC purified peptides was evaluated by using microtiter plate dilution assay. The peptide concentration was estimated using BCA protein assay (Thermo Fisher Scientific, United States) method as described by manufacturer. Actively growing test strains (5 × 10^5 CFU/ml) were inoculated in a 96-well plate with different concentrations of the peptides and plates were incubated for 24–48 h at 37°C (final volume in each well is 200 μl). OD was measured at 600 nm after 24 and 48 h for bacteria and yeast, respectively, using ELISA microplate reader (Thermo, United States). MIC against phytopathogenic fungi was determined using 96-well microtiter plate assay ([Kaur et al., 2016]). In 96-well microplates, 100 μl of fungal spore suspension (1 × 10^5 spores/ml) prepared in potato dextrose broth (PDB, Hi-media, India) was mixed with100 μl of fresh PDB containing different concentrations of lipopeptide. Control well contained 100 μl of fungal spore suspension and 100 μl of only medium. The microplates were incubated at 25°C and readings were recorded at 600 nm after 48 h. The lowest concentration showing no growth was considered as MIC. Each test was done in triplicate and optical density (OD600) of peptide treated wells were compared with uninoculated wells (blank medium control).

S. oralis MTCC 2696 = assay: MIC, microtiter plate dilution assay; assay type: cell-based; details: 5 × 10^5 CFU/ml, 37°C, OD600 after 24 h, triplicate
Experimental: as §1, §3

[2] = tested on: C. kefyr 410004 (clinical isolate); assay: MIC, microtiter plate dilution assay; assay type: cell-based; details: 5 × 10^5 CFU/ml, 37°C, OD600 after 48 h, triplicate
Experimental: as §1, §3

[3] = tested on: C. glabrata SKSS ID (clinical isolate); assay: MIC, microtiter plate dilution assay; assay type: cell-based; details: 5 × 10^5 CFU/ml, 37°C, OD600 after 48 h, triplicate
Experimental: as §1, §3

S. mutans MTCC 497 = assay: MIC, microtiter plate dilution assay; assay type: cell-based; details: 5 × 10^5 CFU/ml, 37°C, OD600 after 24 h, triplicate
Experimental: as §1, §3

[4] = tested on: A. brassicicola MTCC 2102; assay: MIC against phytopathogenic fungi, 96-well microtiter plate assay; assay type: cell-based, Alternaria brassicicola; details: 1 × 10^5 spores/ml in PDB, 25°C, OD600 after 48 h, triplicate
Experimental: (§4) The antimicrobial activity was tested by well diffusion assay as mentioned earlier ([Singh et al., 2014]). Strain A52 was grown for 24 h in 500 ml of nutrient broth (NB, Hi-media, India) using 1000 ml flask and subsequently cells were removed by centrifugation (10,000 rpm for 15 min at 4°C). Supernatant was filtered through 0.22 μm filter (Millipore, United States) to obtain cell-free fermented broth (CFB) that was used for antimicrobial assay (50 μl) against various indicator strains and the activity was measured as diameter of inhibition zone. […]
as §2, with “assay.” for “assay. The peptide concentration was estimated using BCA protein assay (Thermo Fisher Scientific, United States) method as described by manufacturer.”

rabbit blood cells = assay: Hemolysis assay; assay type: cell-based, New Zealand white rabbit
Experimental: For hemolysis assay blood was collected from New Zealand white rabbit, centrifuged, washed three times, and resuspended in phosphate-buffered saline (PBS). Cells were counted using hemocytometer (adjusted to 2 × 10^8 cells/ml) and treated with different concentrations of peptides (between 10 and 200 μg/ml). They were incubated in a CO2 incubator for 24 h at 37°C and processed to observe release of hemoglobin as described earlier ([Singh et al., 2014]). PBS and 0.1% Triton X-100 were used as agents for 0 and 100% hemolysis, respectively.

[5] = Collapse drop assay (CDA); assay type: physicochemical; details: 5 μl of peptide (10 μg/ml) on mineral oil, observed after 1 min
Experimental: The surfactant property of peptide was determined using the qualitative drop-collapse assay ([Youssef et al., 2004]). Mineral oil (2 μl) was added to 96-well microtiter plate and equilibrated for 24 h at 37°C. After equilibration 5 μl of purified peptides (10 μg/ml) were added to the surface of the oil and drop shape was observed after 1 min using magnifying glass. Triton X-100 and water were used as positive and negative control, respectively.

E. coli MTCC 1610 = assay: MIC, microtiter plate dilution assay; assay type: cell-based, Escherichia coli; details: 5 × 10^5 CFU/ml, 37°C, OD600 after 24 h, triplicate
Experimental: as §4
as §2, with “assay.” for “assay. The peptide concentration was estimated using BCA protein assay (Thermo Fisher Scientific, United States) method as described by manufacturer.”

C. acutatum MTCC1037 = assay: MIC against phytopathogenic fungi, 96-well microtiter plate assay; assay type: cell-based, Colletotrichum acutatum; details: 1 × 10^5 spores/ml in PDB, 25°C, OD600 after 48 h, triplicate
Experimental: as §4
as §2, with “assay.” for “assay. The peptide concentration was estimated using BCA protein assay (Thermo Fisher Scientific, United States) method as described by manufacturer.”

Glu^1-Leu/Ile^2-Leu^3-Val^4-Asp^5-Leu^6-Leu/Ile^7 and a β-OH hexadecane fatty acid chain (lariat or depsi) [Lipopeptide A52, cyclic surfactin-like lipopeptide, 7 amino acids and C16 β-hydroxy fatty acid, 1061.9 Da, from B. subtilis strain A52]
inhibition in TLC based overlay bioautographic assay (S. aureus MTCC 1430): inhibited | MIC value, F. moniliforme MTCC 158 (F. moniliforme MTCC 158): 20 µg/mL | MIC value, C. tropicalis 420024 [1]: 28 µg/mL | MIC value, S. oralis MTCC 2696 (S. oralis MTCC 2696): 4 µg/mL | MIC value, C. kefyr 410004 [2]: 26 µg/mL | MIC value, C. glabrata SKSS ID [3]: 16 µg/mL | MIC value, S. mutans MTCC 497 (S. mutans MTCC 497): 6 µg/mL | MIC value, A. brassicicola MTCC 2102 [4]: 25 µg/mL | hemolytic activity (rabbit blood cells): demonstrated hemolytic activity | drop collapse (surfactant property) [5]: positive | MIC value, E. coli MTCC 1610 (E. coli MTCC 1610): 6 µg/mL | MIC value, C. acutatum MTCC1037 (C. acutatum MTCC1037): 35 µg/mL
